We go through 9 compounds from patent US20050267158A1, “Polymorphic and amorphous forms of 2,5-dimethyl-2H-pyrazole-3-carboxylic acid {2-fluoro-5-[3-((E)-2 pyridin-2-YL-vinyl)-1H-indazol-6-ylamino]-phenyl}-amide” (AGOURON PHARMACEUTICALS, INC., priority 2004, published 2005).

In brackets after ≈: the same amount, converted by molar mass.

Assay type in all cases: physicochemical
The nature of data set [1]: Light stability under ICH high intensity light conditions. An excerpt: (§1) The present invention provides several polymorph crystalline forms and an amorphous form of the compound of Formula I. Each crystalline or amorphous form of the compound can be characterized by one or more of the following: X-ray powder diffraction pattern (i.e., X-ray diffraction peaks at various diffraction angles (2θ)), melting point onset (and onset of dehydration for hydrated forms) as illustrated by endotherms of a Differential Scanning Calorimetry (DSC) thermogram, Raman spectral diagram pattern, aqueous solubility, light stability under International Conference on Harmonization (ICH) high intensity light conditions, and physical and chemical storage stability.

A short description of another data set: Aqueous solubility. Conditions: for solubility: thermodynamic from solid.
Source text: as §1

Data set [2] is described as follows: Hygroscopicity / form conversion under ambient humidity. To be noted: for conversion of solid form: ambient humidity.
The nature of data set [3]: Physical and chemical storage stability.
Source text: as §1

Setting [4] is: aqueous medium, pH 2, pH 2, aqueous buffer, pH 2.

For the compound `Cc1cc(C(=O)Nc2cc(Nc3ccc4c(/C=C/c5ccccn5)n[nH]c4c3)ccc2F)n(C)n1` [Form II, 2,5-Dimethyl-2H-pyrazole-3-carboxylic acid {2-fluoro-5-[3-((E)-2-pyridin-2-yl-vinyl)-1H-indazol-6-ylamino]-phenyl}-amide], the light stability entry in data set [1] is reported as “light-stable”. The solubility (as a rule, the dissolved amount per volume that the medium holds) was about 19 µg/mL (≈ 40.6 µM) in the data set “Aqueous solubility” (aqueous medium at pH 2, pH 2, aqueous buffer, pH 2) and about 0.7 µg/mL (≈ 1.5 µM) in the data set “Aqueous solubility” (aqueous medium at pH 7.4, pH 7.4, aqueous buffer, pH 7.4).

For `Cc1cc(C(=O)Nc2cc(Nc3ccc4c(/C=C/c5ccccn5)n[nH]c4c3)ccc2F)n(C)n1` [Form Ia, 2,5-Dimethyl-2H-pyrazole-3-carboxylic acid {2-fluoro-5-[3-((E)-2-pyridin-2-yl-vinyl)-1H-indazol-6-ylamino]-phenyl}-amide], the light stability result in data set [1] is on record as “light-stable”.

`Cc1cc(C(=O)Nc2cc(Nc3ccc4c(/C=C/c5ccccn5)n[nH]c4c3)ccc2F)n(C)n1` [Form Ibm-2, 2,5-Dimethyl-2H-pyrazole-3-carboxylic acid {2-fluoro-5-[3-((E)-2-pyridin-2-yl-vinyl)-1H-indazol-6-ylamino]-phenyl}-amide]: in data set [2], the “conversion of solid form” value is listed as “will convert to Form Ib upon complete hydration”.

Consider `Cc1cc(C(=O)Nc2cc(Nc3ccc4c(/C=C/c5ccccn5)n[nH]c4c3)ccc2F)n(C)n1` [Form III, 2,5-Dimethyl-2H-pyrazole-3-carboxylic acid {2-fluoro-5-[3-((E)-2-pyridin-2-yl-vinyl)-1H-indazol-6-ylamino]-phenyl}-amide], for which the light stability result in data set [1] is reported as “light-stable”. For the same compound, the aqueous solubility entry is “about 10 μg/mL” in “Aqueous solubility” (pH 2) and “about 0.6 μg/mL” in “Aqueous solubility” (pH 7.4).

Consider `Cc1cc(C(=O)Nc2cc(Nc3ccc4c(/C=C/c5ccccn5)n[nH]c4c3)ccc2F)n(C)n1` [Form IV, 2,5-Dimethyl-2H-pyrazole-3-carboxylic acid {2-fluoro-5-[3-((E)-2-pyridin-2-yl-vinyl)-1H-indazol-6-ylamino]-phenyl}-amide], for which the light stability result in data set [1] is “light-stable”. Moreover, the solubility in the data set “Aqueous solubility” (setting [4]) was about 7 µg/mL (≈ 15 µM).

Take `Cc1cc(C(=O)Nc2cc(Nc3ccc4c(/C=C/c5ccccn5)n[nH]c4c3)ccc2F)n(C)n1` [Form Ib, 2,5-Dimethyl-2H-pyrazole-3-carboxylic acid {2-fluoro-5-[3-((E)-2-pyridin-2-yl-vinyl)-1H-indazol-6-ylamino]-phenyl}-amide]: in data set [3] (60° C. and 40° C./75% RH), the “physical and chemical stability” value is “physically and chemically stable for at least three months”.

On to `Cc1cc(C(=O)Nc2cc(Nc3ccc4c(/C=C/c5ccccn5)n[nH]c4c3)ccc2F)n(C)n1` [Form VI, 2,5-Dimethyl-2H-pyrazole-3-carboxylic acid {2-fluoro-5-[3-((E)-2-pyridin-2-yl-vinyl)-1H-indazol-6-ylamino]-phenyl}-amide], for which, in data set [2], the hygroscopicity result is “very hygroscopic” and the “conversion of solid form” value is given as “readily converted back to Form Ib”.

Turning to `Cc1cc(C(=O)Nc2cc(Nc3ccc4c(/C=C/c5ccccn5)n[nH]c4c3)ccc2F)n(C)n1` [Form I, 2,5-Dimethyl-2H-pyrazole-3-carboxylic acid {2-fluoro-5-[3-((E)-2-pyridin-2-yl-vinyl)-1H-indazol-6-ylamino]-phenyl}-amide], in data set [1], the light stability result is “light-stable”. In addition, the solubility in the data set “Aqueous solubility” (aqueous medium (pH 7.4), pH 7.4, aqueous buffer, pH 7.4) is about 0.4 µg/mL (≈ 0.856 µM); in the data set “Aqueous solubility” (setting [4]), about 39 µg/mL (≈ 83.4 µM). For the same compound, the time chemically stable in data set [3] (80° C. and 40° C./75% RH) is given as “at least 14 days”.

Consider `Cc1cc(C(=O)Nc2cc(Nc3ccc4c(/C=C/c5ccccn5)n[nH]c4c3)ccc2F)n(C)n1` [Form V, 2,5-Dimethyl-2H-pyrazole-3-carboxylic acid {2-fluoro-5-[3-((E)-2-pyridin-2-yl-vinyl)-1H-indazol-6-ylamino]-phenyl}-amide], for which, in data set [1], the light stability entry is recorded as “light-stable”. Moreover, in the data set “Aqueous solubility” (aqueous medium, pH 2, aqueous buffer, pH 2), the solubility was about 8 µg/mL (≈ 17.1 µM). Further, the aqueous solubility result in the data set “Aqueous solubility” (pH 7.4) is “about 0.2 μg/mL”.
